Assay results: patent US20250163057A1, “DCN-1 MODULATING COMPOUNDS AND METHODS OF USE THEREOF” (Cellarity, Inc., priority 2023, published 2025)
Read-outs that look alike come from different tables or passages of the source.

How the values were obtained:
[1] = tested on: Cullin-3 (CUL3) neddylation; assay: AlphaLISA assay for Cullin-3 (CUL3) neddylation in TF 1 cells; format: cell-based; settings: Homo sapiens, TF-1, 3 h, 3 hours treatment
Summary of the method: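 Neddylated CUL3 was quantified by AlphaLISA in lysates of TF 1 cells exposed for 3 h to test compound in IMDM without supplements. Percent inhibition set between vehicle and 1 μM DI-1548 positive control; IC50 derived by Hill-equation fitting of dose-response curves.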

DCN1 protein = DCN1 protein (Homo sapiens (Human), UniProt Q96GG9); assay: Intact Protein MS Analysis with the RapidFire-TOF System (covalent adduct formation); format: binding; settings: MS Emax; 400 nM DCN1, 3 hours at room temperature
Summary of the method: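 Tag-cleaved human DCN1 (400 nM) expressed in E. coli, in 25 mM Tris-HCl, 200 mM NaCl, 1 mM DTT, was incubated with 11 compound concentrations for 3 h at room temperature and quenched with 0.2% formic acid. Intact-protein Q-TOF MS with deconvolution detected the compound adduct mass.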

[2] = target: DCN1 (DCUND1) protein PONY domain (Homo sapiens (Human), UniProt Q96GG9); assay: TR-FRET assay, DCN1 binding with FAM-labeled probe
Summary of the method: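 Tb-DCN1 PONY domain (E. coli, biotin/streptavidin-Tb); FAM-labelled non-covalent inhibitor probe; TritonX buffer, 200 mM NaCl; 5 nM DCN1 + 20 nM probe or 0.31 nM DCN1 + 900 nM total probe; 0.1% DMSO; TR-FRET read 1, 5, 24 hrs.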

[3] = 24 hr after treatment with compound, read-out: TR FRET IC50 24 hr
[4] = TR FRET IC50 1 hr (nM), 1 hr after treatment with compound
[5] = read-out: TR FRET IC50 1 hr, 1 hr after treatment with compound

Sequence of DCN1 (DCUND1) protein PONY domain (Q96GG9 60-248): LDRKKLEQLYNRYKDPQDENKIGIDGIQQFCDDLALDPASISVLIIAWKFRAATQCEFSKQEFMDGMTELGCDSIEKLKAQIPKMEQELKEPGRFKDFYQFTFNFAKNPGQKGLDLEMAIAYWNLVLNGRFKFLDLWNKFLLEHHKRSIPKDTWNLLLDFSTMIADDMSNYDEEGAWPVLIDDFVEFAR
Sequence of DCN1 protein (Q96GG9 whole entry): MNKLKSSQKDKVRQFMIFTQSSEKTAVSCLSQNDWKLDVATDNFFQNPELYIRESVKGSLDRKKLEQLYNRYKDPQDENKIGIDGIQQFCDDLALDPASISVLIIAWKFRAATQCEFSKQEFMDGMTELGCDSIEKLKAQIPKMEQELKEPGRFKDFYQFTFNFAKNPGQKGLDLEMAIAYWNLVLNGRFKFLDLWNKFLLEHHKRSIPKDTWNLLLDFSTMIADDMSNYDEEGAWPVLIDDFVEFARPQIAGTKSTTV

Row | SMILES | IC50 [1] [µM] | % Adduct Formation (DCN1 protein) | IC50 [2, 3] [nM] | IC50 [2, 4] [nM] | IC50 [2, 5] [nM]
1 | CCN1C(=O)[C@H](NC(=O)c2cccc(C(F)(F)F)c2)[C@H](c2ccc(F)cc2)c2c(C(=O)N3CCC[C@H]3C#N)nn(-c3cccc(OCCCN4CC5(COC5)C4)c3)c21 (stereo in doubt) [Compound I-293] | ≤ 0.1 | +++ (MS Emax % adduct formation greater than 80.0 and less than or equal to 100.0) | ≤ 200 | ≤ 200 | 
2 | CCN1C(=O)[C@@H](NC(=O)c2cccc(C(F)(F)F)c2)[C@@H](c2ccc(F)cc2)c2c(C#N)nn(-c3ccccc3)c21 (racemic) [Compound I-115, rac-N-((4R,5R)-3-cyano-7-ethyl-4-(4-fluorophenyl)-6-oxo-1-phenyl-4,5,6,7-tetrahydro-1H-pyrazolo[3,4-b]pyridine-5-yl)-3-(trifluoromethyl)benzamide] |  | + (MS Emax % adduct formation greater than or equal to 0.0 and less than or equal to 30.0) | > 3000 | > 3000 | 
3 | CC#CC(=O)N(C)Cc1nn(-c2ccccc2)c2c1[C@H](c1ccc(F)cc1)[C@H](NC(=O)c1cccc(C(F)(F)F)c1)C(=O)N2CC (racemic) [Compound I-90] |  | + (MS Emax % adduct formation greater than or equal to 0.0 and less than or equal to 30.0) | > 3000 |  | > 3000
4 | CCN1C(=O)[C@@H](NC(=O)c2cccc(C(F)(F)F)c2)[C@@H](c2ccc(F)cc2)c2c(C/C=C/C(=O)OC)nn(-c3ccccc3)c21 (racemic) [Compound I-131, rac-methyl (E)-4-((4R,5R)-7-ethyl-4-(4-fluorophenyl)-6-oxo-1-phenyl-5-(3-(trifluoromethyl)benzamido)-4,5,6,7-tetrahydro-1H-pyrazolo[3,4-b]pyridin-3-yl)but-2-enoate] |  | + (MS Emax % adduct formation greater than or equal to 0.0 and less than or equal to 30.0) | 200 to 1000 | 1000 to 3000 | 
5 | CCN1C(=O)[C@@H](NC(=O)c2cccc(C(F)(F)F)c2)[C@@H](c2ccc(F)cc2)c2c(CN(C)C(=O)[C@H](C)Cl)nn(-c3ccccc3)c21 (stereo in doubt) [Compound I-30] |  | + (MS Emax % adduct formation greater than or equal to 0.0 and less than or equal to 30.0) | 1000 to 3000 |  | > 3000
6 | CCN1C(=O)[C@@H](NC(=O)c2cccc(C(F)(F)F)c2)[C@@H](c2ccc(F)cc2)c2c(CN(C)C(=O)[C@H](C)Cl)nn(-c3ccccc3)c21 (stereo in doubt) [Compound I-33] |  | + (MS Emax % adduct formation greater than or equal to 0.0 and less than or equal to 30.0) | 1000 to 3000 | 1000 to 3000 | 
7 | CCN1C(=O)[C@@H](NC(=O)c2cccc(C(F)(F)F)c2)[C@@H](c2ccc(F)cc2)c2c(C/C=C/C(=O)O)nn(-c3ccccc3)c21 (racemic) [Compound I-83, rac-(E)-4-((4R,5R)-7-ethyl-4-(4-fluorophenyl)-6-oxo-1-phenyl-5-(3-(trifluoromethyl)benzamido)-4,5,6,7-tetrahydro-1H-pyrazolo[3,4-b]pyridin-3-yl)but-2-enoic acid] |  | + (MS Emax % adduct formation greater than or equal to 0.0 and less than or equal to 30.0) | 1000 to 3000 | 1000 to 3000 | 
8 | CCN1C(=O)[C@@H](NC(=O)c2cccc(C(F)(F)F)c2)[C@@H](c2ccc(F)cc2)c2c(C(=O)N3CCCC[C@@H]3C#N)nn(-c3ccccc3)c21 [Compound I-121] |  | ++ (MS Emax % adduct formation greater than 30.0 and less than or equal to 80.0) | ≤ 200 |  | ≤ 200
9 | C/C=C/C(=O)N[C@@H](C)c1nn(-c2ccccc2)c2c1[C@H](c1ccc(F)cc1)[C@H](NC(=O)c1cccc(C(F)(F)F)c1)C(=O)N2CC (mixture of isomers) [Compound I-23] |  | + (MS Emax % adduct formation greater than or equal to 0.0 and less than or equal to 30.0) | 1000 to 3000 | 1000 to 3000 | 
10 | C=C(C)C(=O)N[C@@H](C)c1nn(-c2ccccc2)c2c1[C@H](c1ccc(F)cc1)[C@H](NC(=O)c1cccc(C(F)(F)F)c1)C(=O)N2CC (mixture of isomers) [Compound I-16] |  | + (MS Emax % adduct formation greater than or equal to 0.0 and less than or equal to 30.0) | 1000 to 3000 | 200 to 1000 | 
11 | CCN1C(=O)[C@@H](NC(=O)c2cccc(C(F)(F)F)c2)[C@@H](c2ccc(F)cc2)c2c(NS(=O)(=O)CCl)nn(-c3ccccc3)c21 (racemic) [Compound I-163] |  | + (MS Emax % adduct formation greater than or equal to 0.0 and less than or equal to 30.0) | ≤ 200 |  | ≤ 200
12 | C/C=C/C(=O)NCc1nn(-c2ccccc2)c2c1[C@H](c1ccc(F)cc1)[C@H](NC(=O)c1cccc(C(F)(F)F)c1)C(=O)N2CC (racemic) [Compound I-123] |  | + (MS Emax % adduct formation greater than or equal to 0.0 and less than or equal to 30.0) | 200 to 1000 | 200 to 1000 | 
13 | C=C(C)C(=O)N(C)Cc1nn(-c2ccccc2)c2c1[C@H](c1ccc(F)cc1)[C@H](NC(=O)c1cccc(C(F)(F)F)c1)C(=O)N2CC (racemic) [Compound I-156] |  | + (MS Emax % adduct formation greater than or equal to 0.0 and less than or equal to 30.0) | 200 to 1000 | 200 to 1000 | 
14 | C=C(C(=O)O)c1nn(-c2ccccc2)c2c1[C@H](c1ccc(F)cc1)[C@@H](NC(=O)c1cccc(C(F)(F)F)c1)C(=O)N2CC (racemic) [Compound I-208, rac-2-((4R,5S)-7-ethyl-4-(4-fluorophenyl)-6-oxo-1-phenyl-5-(3-(trifluoromethyl)benzamido)-4,5,6,7-tetrahydro-1H-pyrazolo[3,4-b]pyridine-3-yl)acrylic acid] |  | + (MS Emax % adduct formation greater than or equal to 0.0 and less than or equal to 30.0) |  |  | 
15 | C=C(C(=O)OCC)c1nn(-c2ccccc2)c2c1[C@H](c1ccc(F)cc1)[C@@H](NC(=O)c1cccc(C(F)(F)F)c1)C(=O)N2CC (racemic) [Compound I-195, rac-ethyl 2-((4R,5S)-7-ethyl-4-(4-fluorophenyl)-6-oxo-1-phenyl-5-(3-(trifluoromethyl)benzamido)-4,5,6,7-tetrahydro-1H-pyrazolo[3,4-b]pyridine-3-yl)acrylate] |  | + (MS Emax % adduct formation greater than or equal to 0.0 and less than or equal to 30.0) |  |  | 
16 | CCN1C(=O)[C@@H](NC(=O)c2cccc(C(F)(F)F)c2)[C@@H](c2ccc(F)cc2)c2c(C(CCl)C(=O)N(C)C)nn(-c3ccccc3)c21 (mixture of isomers) [Compound I-216, rac-N-((4R,5R)-3-(3-chloro-1-(dimethylamino)-1-oxopropan-2-yl)-7-ethyl-4-(4-fluorophenyl)-6-oxo-1-phenyl-4,5,6,7-tetrahydro-1H-pyrazolo[3,4-b]pyridine-5-yl)-3-(trifluoromethyl)benzamide] |  | + (MS Emax % adduct formation greater than or equal to 0.0 and less than or equal to 30.0) |  |  | 
17 | CCN1C(=O)[C@@H](NC(=O)c2cccc(C(F)(F)F)c2)[C@@H](c2ccc(F)cc2)c2c([C@@H](C)NC(=O)C(F)Cl)nn(-c3ccccc3)c21 (stereo in doubt) [Compound I-239] |  | + (MS Emax % adduct formation greater than or equal to 0.0 and less than or equal to 30.0) |  |  | 
18 | CCN1C(=O)[C@@H](NC(=O)c2cccc(C(F)(F)F)c2)[C@@H](c2ccc(F)cc2)c2c([C@H](C)NC(=O)C(C)Cl)nn(-c3ccccc3)c21 (mixture of isomers) [Compound I-211] |  | + (MS Emax % adduct formation greater than or equal to 0.0 and less than or equal to 30.0) |  |  | 
19 | CCN1C(=O)[C@@H](NC(=O)c2cccc(C(F)(F)F)c2)[C@@H](c2ccc(F)cc2)c2c(CNC(=O)/C(C#N)=C/C3CC3)nn(-c3ccccc3)c21 (racemic) [Compound I-217] |  | + (MS Emax % adduct formation greater than or equal to 0.0 and less than or equal to 30.0) |  |  | 
20 | CCN1C(=O)[C@@H](NC(=O)c2cccc(C(F)(F)F)c2)[C@@H](c2ccc(F)cc2)c2c([C@@H](C)NC(=O)C3=CCC3)nn(-c3ccccc3)c21 (mixture of isomers) [Compound I-237] |  | + (MS Emax % adduct formation greater than or equal to 0.0 and less than or equal to 30.0) |  |  | 
21 | CCN1C(=O)[C@@H](NC(=O)c2cccc(C(F)(F)F)c2)[C@@H](c2ccc(F)cc2)c2c(CNS(=O)(=O)CCl)nn(-c3ccccc3)c21 (racemic) [Compound I-198] |  | + (MS Emax % adduct formation greater than or equal to 0.0 and less than or equal to 30.0) |  |  | 
22 | CCN1C(=O)[C@@H](NC(=O)c2cccc(C(F)(F)F)c2)[C@@H](c2ccc(F)cc2)c2c(CN(C)C(=O)C(F)Cl)nn(-c3ccccc3)c21 (some centres unmarked) [Compound I-145] |  | + (MS Emax % adduct formation greater than or equal to 0.0 and less than or equal to 30.0) |  |  | 
23 | CCN1C(=O)[C@@H](NC(=O)c2cccc(C(F)(F)F)c2)[C@@H](c2ccc(F)cc2)c2c(CN(C)C(=O)C3=CCCC3)nn(-c3ccccc3)c21 (racemic) [Compound I-233] |  | + (MS Emax % adduct formation greater than or equal to 0.0 and less than or equal to 30.0) |  |  | 
